Assay results as given in US10280165B2, “Pyridopyrimidinones and methods of use thereof” (Genentech, Inc., priority 2015, dated 2019).

Target: HEK cells stably transfected with tetracycline inducible hNR1 and hNR2A (Homo sapiens (Human), UniProt Q05586+Q12879)
Assay: Assay 1: Cell-Based Assay (cytosolic calcium, positive allosteric modulation)
Settings: for Emax: HEK293, scaled relative to 100 μM L-glutamate maximal response (100%) and 0 μM L-glutamate (0%), with 30 μM glycine and 300 nM L-glutamate, read-out: Max %; for EC50: with 30 μM glycine and 300 nM L-glutamate (EC30), given for compounds reaching maximal response plateaus
Experimental: Assay 1: Cell-Based Assay
HEK cells stably transfected with tetracycline inducible hNR1 and hNR2A were seeded into clear bottom 384 well poly-D-lysine coated plates (2.5×10^4 cells per well) in Minimum Essential Media (MEM; without L-) including 7.5 μg mL doxycycline and 500 μM (+)-ketamine. The cells were incubated at 37° C. in 5% CO2 for 24 h. For measurement of changes in cytosolic calcium, the seeding media was removed and the cells incubated at 37° C. for 60 min with 1× Becton Dickinson Calcium Assay Kit reagent in Hanks Balanced Salt Solution (HBSS; w/o magnesium, including 1.8 mM calcium, 0.65 mg ml^−1 probenecid and 10 μM (+)-ketamine, pH 7.15) then allowed to equilibrate to rt for 30 min. Concentration-effect curves to Positive Allosteric Modulators (PAMs) were constructed by adding different concentrations (with 30 μM glycine and 300 nM L-glutamate (EC30)) to different wells in HBSS. Compounds were added after a 10 second baseline read and maximum level of relative fluorescence units (RFU) was measured over a 5 min period. Responses were scaled relative to 100 μM L-glutamate maximal response (100%) and 0 μM L-glutamate (0%). EC50 values are provided for compounds reaching maximal response plateaus, and the max % (EC50 (--)) only if no plateau was reached.
A four-parameter Hill equation was fitted to individual concentration-effect curves:
[formula] in which Y, S0, Sinf, AC50, n and c were effect, lower-asymptote, upper-asymptote, mid-point location, slope parameter, and concentration respectively.

Sequence of HEK cells stably transfected with tetracycline inducible hNR1 and hNR2A (Q12879 23-1464, other chains not shown): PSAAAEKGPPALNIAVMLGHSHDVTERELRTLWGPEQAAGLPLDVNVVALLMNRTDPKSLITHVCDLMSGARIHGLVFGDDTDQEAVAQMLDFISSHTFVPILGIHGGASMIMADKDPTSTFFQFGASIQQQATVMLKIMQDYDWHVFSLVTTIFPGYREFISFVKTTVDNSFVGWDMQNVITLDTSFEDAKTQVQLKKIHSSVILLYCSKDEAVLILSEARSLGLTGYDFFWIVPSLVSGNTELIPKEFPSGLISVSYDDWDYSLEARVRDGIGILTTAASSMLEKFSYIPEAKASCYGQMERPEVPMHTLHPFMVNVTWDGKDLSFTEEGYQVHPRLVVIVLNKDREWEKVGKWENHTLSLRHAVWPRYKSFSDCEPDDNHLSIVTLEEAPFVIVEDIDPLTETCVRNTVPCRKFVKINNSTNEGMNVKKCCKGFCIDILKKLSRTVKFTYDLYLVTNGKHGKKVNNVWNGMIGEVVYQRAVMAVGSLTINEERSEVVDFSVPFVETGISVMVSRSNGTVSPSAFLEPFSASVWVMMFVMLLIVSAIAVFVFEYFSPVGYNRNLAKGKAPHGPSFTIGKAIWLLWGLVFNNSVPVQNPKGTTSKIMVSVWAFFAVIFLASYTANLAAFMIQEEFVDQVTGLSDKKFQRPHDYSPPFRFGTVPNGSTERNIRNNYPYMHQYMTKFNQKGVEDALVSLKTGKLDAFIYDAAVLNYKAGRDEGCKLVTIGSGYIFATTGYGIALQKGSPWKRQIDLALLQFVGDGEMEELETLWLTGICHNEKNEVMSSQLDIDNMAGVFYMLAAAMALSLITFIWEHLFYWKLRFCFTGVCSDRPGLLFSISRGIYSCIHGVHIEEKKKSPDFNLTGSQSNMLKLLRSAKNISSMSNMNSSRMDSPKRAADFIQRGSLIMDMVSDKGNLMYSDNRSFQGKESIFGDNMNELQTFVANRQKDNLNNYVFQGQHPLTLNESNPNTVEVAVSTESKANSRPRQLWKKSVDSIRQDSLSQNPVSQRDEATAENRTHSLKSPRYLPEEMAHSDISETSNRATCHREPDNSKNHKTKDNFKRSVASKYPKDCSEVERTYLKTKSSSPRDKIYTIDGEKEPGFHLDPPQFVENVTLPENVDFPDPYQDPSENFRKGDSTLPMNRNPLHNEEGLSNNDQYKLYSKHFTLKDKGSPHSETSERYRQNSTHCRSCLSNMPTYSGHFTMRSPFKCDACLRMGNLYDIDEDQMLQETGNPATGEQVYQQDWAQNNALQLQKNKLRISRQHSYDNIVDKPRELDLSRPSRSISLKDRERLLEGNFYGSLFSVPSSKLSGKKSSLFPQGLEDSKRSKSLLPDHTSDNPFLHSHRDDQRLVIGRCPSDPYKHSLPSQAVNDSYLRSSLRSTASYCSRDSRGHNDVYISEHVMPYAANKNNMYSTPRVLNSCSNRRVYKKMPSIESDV

Structure (SMILES)	Emax [%]	EC50 [µM]
Cc1ccc2nc(CN(C)c3ccccc3)cc(=O)n2c1 [Compound 2, 7-methyl-2-[(N-methylanilino)methyl]pyrido[1,2-a]pyrimidin-4-one]	75	–
CCN(Cc1cc(=O)n2cc(C)ccc2n1)c1ccccc1 [Compound 3, 2-[(N-ethylanilino)methyl]-7-methyl-pyrido[1,2-a]pyrimidin-4-one]	122	11.1
CCN(Cc1cc(=O)n2cc(C)ccc2n1)c1ccc(F)cc1 [Compound 4, 2-[(N-ethyl-4-fluoro-anilino)methyl]-7-methyl-pyrido[1,2-a]pyrimidin-4-one]	134	5.2
CCc1cccc2nc(CN(CC)c3ccc(F)cc3)cc(=O)n12 [Compound 5, 6-ethyl-2-[(N-ethyl-4-fluoro-anilino)methyl]pyrido[1,2-a]pyrimidin-4-one]	134	6.4
CCc1cccc2nc(CN(CC)c3ccccc3)cc(=O)n12 [Compound 6, 6-ethyl-2-[(N-ethylanilino)methyl]pyrido[1,2-a]pyrimidin-4-one]	138	11.5
CCN(Cc1cc(=O)n2c(C)cccc2n1)c1ccc(F)cc1 [Compound 7, 2-[(N-ethyl-4-fluoro-anilino)methyl]-6-methyl-pyrido[1,2-a]pyrimidin-4-one]	111	13.6
CCN(Cc1cc(=O)n2c(OC)cccc2n1)c1ccc(F)cc1 [Compound 8, 2-[(N-ethyl-fluoro-anilino)methyl]-6-methoxy-pyrido[1,2-a]pyrimidin-4-one]	117	–
CCOc1cccc2nc(CN(CC)c3ccc(F)cc3)cc(=O)n12 [Compound 9, 6-ethoxy-2-[(N-ethyl-4-fluoro-anilino)methyl]pyrido[1,2-a]pyrimidin-4-one]	120	5
CCN(Cc1cc(=O)n2c(OC)c(C)ccc2n1)c1ccc(F)cc1 [Compound 10, 2-[(N-ethyl-4-fluoro-anilino)methyl]-6-methoxy-7-methyl-pyrido[1,2-a]pyrimidin-4-one]	51	–
CCOc1c(C)ccc2nc(CN(CC)c3ccc(F)cc3)cc(=O)n12 [Compound 11, 6-ethoxy-2-[(N-ethyl-4-fluoro-anilino)methyl]-7-methyl-pyrido[1,2-a]pyrimidin-4-one]	53	–
CCN(Cc1cc(=O)n2c(-c3cncnc3)cccc2n1)c1ccc(F)cc1 [Compound 12, 2-[(N-ethyl-4-fluoro-anilino)methyl]-6-pyrimidin-5-yl-pyrido[1,2-a]pyrimidin-4-one]	161	6.4
CCN(Cc1cc(=O)n2c(-c3ccco3)cccc2n1)c1ccc(F)cc1 [Compound 13, 2-[(N-ethyl-4-fluoro-anilino)methyl]-6-(2-furyl)pyrido[1,2-a]pyrimidin-4-one]	172	0.371
CCN(Cc1cc(=O)n2c(C#N)cccc2n1)c1ccc(F)cc1 [Compound 14, 2-[(N-ethyl-4-fluoro-anilino)methyl]-4-oxo-pyrido[1,2-a]pyrimidine-6-carbonitrile]	163	5.8
CCN(Cc1cc(=O)n2c(Br)cccc2n1)c1ccc(F)cc1 [Compound 15, 6-bromo-2-[(N-ethyl-4-fluoro-anilino)methyl]pyrido[1,2-a]pyrimidin-4-one]	159	6.2
CCNC(=O)c1c(C)ccc2nc(COc3ccc(F)cc3)cc(=O)n12 [Compound 16, N-ethyl-2-[(4-fluorophenoxy)methyl]-7-methyl-4-oxo-pyrido[1,2-a]pyrimidine-6-carboxamide]	159	3.6
CCNC(=O)c1c(C)ccc2nc(Cn3nc(C(F)(F)F)cc3C3CC3)cc(=O)n12 [Compound 17, 2-[[5-cyclopropyl-3-(trifluoromethyl)pyrazol-1-yl]methyl]-N-ethyl-7-methyl-4-oxo-pyrido[1,2-a]pyrimidine-6-carboxamide]	148	4
CCNC(=O)c1c(C)ccc2nc(Cn3nc(C4CC4)cc3C(F)(F)F)cc(=O)n12 [Compound 18, 2-[[3-cyclopropyl-5-(trifluoromethyl)pyrazol-1-yl]methyl]-N-ethyl-7-methyl-4-oxo-pyrido[1,2-a]pyrimidine-6-carboxamide]	122	16.2
CCNC(=O)c1c(C)ccc2nc(Cc3cccc(C#N)c3F)cc(=O)n12 [Compound 19, 2-[(3-cyano-2-fluoro-phenyl)methyl]-N-ethyl-7-methyl-4-oxo-pyrido[1,2-a]pyrimidine-6-carboxamide]	65	–
CCNC(=O)c1cccc2nc(Cn3nc(C(F)(F)F)cc3C3CC3)cc(=O)n12 [Compound 20, 2-[[5-cyclopropyl-3-(trifluoromethyl)pyrazol-1-yl]methyl]-N-ethyl-4-oxo-pyrido[1,2-a]pyrimidine-6-carboxamide]	116	7.4
CCNC(=O)c1cccc2nc(Cc3cccc(C#N)c3F)cc(=O)n12 [Compound 21, 2-[(3-cyano-2-fluoro-phenyl)methyl]-N-ethyl-4-oxo-pyrido[1,2-a]pyrimidine-6-carboxamide]	43	–
CNC(=O)c1c(C)ccc2nc(Cc3cccc(C(F)(F)F)c3F)cc(=O)n12 [Compound 22, 2-[[2-fluoro-3-(trifluoromethyl)phenyl]methyl]-N,7-dimethyl-4-oxo-pyrido[1,2-a]pyrimidine-6-carboxamide]	69	–
CNC(=O)c1c(C)ccc2nc(Cc3cccc(Cl)c3F)cc(=O)n12 [Compound 23, 2-[(3-chloro-2-fluoro-phenyl)methyl]-N,7-dimethyl-4-oxo-pyrido[1,2-a]pyrimidine-6-carboxamide]	59	–
CNC(=O)c1c(C)ccc2nc(Cc3cccc(C4CC4)c3F)cc(=O)n12 [Compound 24, 2-[(3-cyclopropyl-2-fluoro-phenyl)methyl]-N,7-dimethyl-4-oxo-pyrido[1,2-a]pyrimidine-6-carboxamide]	67	–

Now from value to compound:

Emax [%]	EC50 [µM]	Structure (SMILES)
51	–	CNC(=O)c1c(C)ccc2nc(Cc3cccc(C#N)c3F)cc(=O)n12 [Compound 25, 2-[(3-cyano-2-fluoro-phenyl)methyl]-N,7-dimethyl-4-oxo-pyrido[1,2-a]pyrimidine-6-carboxamide]
34	–	CNC(=O)c1c(C)ccc2nc(Cc3cccc(C#N)c3F)c(F)c(=O)n12 [Compound 26, 2-[(3-cyano-2-fluoro-phenyl)methyl]-3-fluoro-N,7-dimethyl-4-oxo-pyrido[1,2-a]pyrimidine-6-carboxamide]
162	2.7	CCN(Cc1cc(=O)n2c(C(=O)NC)c(C)ccc2n1)c1ccc(F)cc1 [Compound 27, 2-[(N-ethyl-4-fluoro-anilino)methyl]-N,7-dimethyl-4-oxo-pyrido[1,2-a]pyrimidine-6-carboxamide]
60	–	CCNC(=O)c1c(C)ccc2nc(Cn3ccc(C(F)(F)F)n3)cc(=O)n12 [Compound 28, N-ethyl-7-methyl-4-oxo-2-[[3-(trifluoromethyl)pyrazol-1-yl)methyl]pyrido[1,2-a]pyrimidine-6-carboxamide]
147	5.9	CNC(=O)c1c(C)ccc2nc(Cn3nc(C(F)(F)F)cc3C3CC3)cc(=O)n12 [Compound 29, 2-[[5-cyclopropyl-3-(trifluoromethyl)pyrazol-1-yl]methyl]-N,7-dimethyl-4-oxo-pyrido[1,2-a]pyrimidine-6-carboxamide]
101	–	CNC(=O)c1c(C)ccc2nc(Cn3nc(C4CC4)cc3C(F)(F)F)cc(=O)n12 [Compound 30, 2-[[3-cyclopropyl-5-(trifluoromethyl)pyrazol-1-yl]methyl]-N,7-dimethyl-4-oxo-pyrido[1,2-a]pyrimidine-6-carboxamide]
48	–	CNC(=O)c1c(C)ccc2nc(Cc3cccc(Cl)c3F)c(F)c(=O)n12 [Compound 31, 2-[(3-chloro-2-fluoro-phenyl)methyl]-3-fluoro-N,7-dimethyl-4-oxo-pyrido[1,2-a]pyrimidine-6-carboxamide]
136	–	CCNC(=O)c1cc(C)cc2nc(Cn3nc(C(F)(F)F)cc3C3CC3)cc(=O)n12 [Compound 32]
198	–	Cc1ccc2nc(Cn3nc(C(F)(F)F)cc3C3CC3)cc(=O)n2c1C(=O)NCC(F)(F)F [Compound 33, 2-[[5-cyclopropyl-3-(trifluoromethyl)pyrazol-1-yl]methyl]-7-methyl-4-oxo-N-(2,2,2-trifluoroethyl)pyrido[1,2-a]pyrimidine-6-carboxamide]
99	25.5	Cc1ccc2nc(Cn3nc(C(F)(F)F)cc3Cl)cc(=O)n2c1[C@H]1C[C@@H]1C#N [Compound 34, (1S,2S)-2-[2-[[5-chloro-3-(trifluoromethyl)pyrazol-1-yl]methyl]-7-methyl-4-oxo-pyrido[1,2-a]pyrimidin-6-yl]cyclopropanecarbonitrile]
132	0.077	Cc1ccc2nc(Cn3nc(C(F)(F)F)cc3Cl)cc(=O)n2c1[C@@H]1C[C@H]1C#N [Compound 35, (1R,2R)-2-[2-[[5-chloro-3-(trifluoromethyl)pyrazol-1-yl]methyl]-7-methyl-4-oxo-pyrido[1,2-a]pyrimidin-6-yl]cyclopropanecarbonitrile]
